Here are results for 1 molecule from US7220864B2, “Dihydronaphthalene derivative compounds and agent comprising the derivative as active ingredient” (Ono Pharmaceutical Co., Ltd., priority 2000, dated 2007).

The target of experiment [1] is T1, human PPAR α (Homo sapiens, UniProt Q07869).
T1 construct: expressed in transfected cells; host or cells: CV-1 cells
T1 sequence (Q07869 167-468): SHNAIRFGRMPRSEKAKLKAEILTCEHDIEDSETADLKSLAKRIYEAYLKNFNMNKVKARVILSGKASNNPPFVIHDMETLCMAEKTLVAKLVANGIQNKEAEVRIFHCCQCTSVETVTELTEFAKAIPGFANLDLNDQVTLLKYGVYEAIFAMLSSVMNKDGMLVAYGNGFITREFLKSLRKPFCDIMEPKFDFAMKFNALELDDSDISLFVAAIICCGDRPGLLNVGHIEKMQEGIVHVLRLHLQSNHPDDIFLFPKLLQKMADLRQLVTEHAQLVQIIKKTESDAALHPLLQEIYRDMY
Description: Luciferase assay using human PPAR α (PPAR α agonistic activity). Particulars: compound 10 μM; CV-1 cells with Gal4-human PPAR α LBD chimera and luciferase reporter; luciferase activity of carbacyclin (10 μM) defined as 1.0. Type of experiment: cell-based.

For experiment [2], the target named is T2, human PPAR γ (Homo sapiens, UniProt P37231).
T2 construct: expressed in transfected cells; host or cells: CV-1 cells
T2 sequence (P37231 204-505): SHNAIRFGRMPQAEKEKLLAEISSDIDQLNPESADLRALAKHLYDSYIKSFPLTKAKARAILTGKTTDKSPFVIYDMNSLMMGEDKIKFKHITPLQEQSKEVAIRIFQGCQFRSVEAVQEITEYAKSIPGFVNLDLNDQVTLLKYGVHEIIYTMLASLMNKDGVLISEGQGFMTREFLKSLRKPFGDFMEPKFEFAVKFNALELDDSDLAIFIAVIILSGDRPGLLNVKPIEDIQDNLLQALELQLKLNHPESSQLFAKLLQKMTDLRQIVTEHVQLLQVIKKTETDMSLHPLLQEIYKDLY
Description: Luciferase assay using human PPAR γ (PPAR γ agonistic activity). Type of experiment: cell-based. Particulars: compound 10 μM; CV-1 cells with Gal4-human PPAR γ LBD chimera and luciferase reporter; luciferase activity of troglitazone (10 μM) defined as 1.0. (In a reporter assay the amount or activity of a reporter protein is the signal.)

Take `O=C(O)CCCCC1=CCCc2c(OCc3ccc4ccccc4n3)cccc21` [comprative compound]: the “Relative Activity to a positive control compound (carbacyclin = 1)” value in experiment [1] is 0.01. Further, the “Relative Activity to a positive control compound (troglitazone = 1)” value in experiment [2] amounted to 0.004.
